Data taken from ChEMBL document CHEMBL1201862, “PubChem BioAssay data set” (2004).
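Growth conditions: 96-well plates. Treatment: test compound, 48 hours, 5 concentrations. Analysis: linear interpolation between bracketing concentrations; unreached endpoints set to highest concentration. Abbreviation: GI50, concentration required for 50% inhibition of growth.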 Active and inactive are the calls of the source. No stated cut-off is given here; in the data, active = GI50 up to about 1.1 µM and inactive = higher.

Tests used:
Assay in all cases: growth of human tumour cells (NCI), 48 h
[1] = tested on: KM-20L2
[2] = tested on: EKVX
[3] = tested on: OVCAR-5
[4] = tested on: DMS-273
[5] = tested on: OVCAR-8
[6] = tested on: TK-10
[7] = tested on: HCT-15
[8] = tested on: KM12
[9] = tested on: COLO 205
[10] = tested on: Malme-3M
[11] = tested on: SF-268
[12] = tested on: UACC-62
[13] = tested on: RXF 393
[14] = tested on: OVCAR-3
[15] = tested on: UACC-257
[16] = tested on: NCI-H226
[17] = tested on: SK-MEL-28
[18] = tested on: CAKI-1
[19] = tested on: HOP-92
[20] = tested on: CCRF-CEM
[21] = tested on: LOX IMVI
[22] = tested on: XF498
[23] = tested on: A498
[24] = tested on: DMS-114
[25] = tested on: NCI-H460
[26] = tested on: SF-539
[27] = tested on: SNB-78
[28] = tested on: HCT-116
[29] = tested on: U-251
[30] = tested on: HCC 2998
[31] = tested on: MOLT-4
[32] = tested on: SK-OV-3
[33] = tested on: 786-0
[34] = tested on: LXFL 529
[35] = tested on: M19-MEL
[36] = tested on: UO-31
[37] = tested on: A549
[38] = tested on: HT-29
[39] = tested on: SK-MEL-2
[40] = tested on: IGROV-1
[41] = tested on: SN12C
[42] = tested on: ACHN
[43] = tested on: NCI-H522
[44] = tested on: SNB-19
[45] = tested on: SF-295
[46] = tested on: SW-620
[47] = tested on: M14
[48] = tested on: OVCAR-4
[49] = tested on: SK-MEL-5
[50] = tested on: HL-60
[51] = tested on: NCI-H23
[52] = tested on: SR
[53] = tested on: SNB-75
[54] = tested on: HOP-62
[55] = tested on: K562
[56] = tested on: DLD-1
[57] = tested on: RPMI-8226
[58] = tested on: HOP-18

Cc1c(C(=O)/C=C/c2c(Cl)cccc2Cl)c(=O)n(-c2ccccc2)n1C
GI50 [1]: 19600 nM (inactive) | GI50 [2]: 50100 nM (inactive) | GI50 [3]: 71800 nM (inactive) | GI50 [4]: 4820 nM (inactive) | GI50 [5]: 16700 nM (inactive) | GI50 [6]: 54700 nM (inactive) | GI50 [7]: 19500 nM | GI50 [8]: 15900 nM (inactive) | GI50 [9]: 13900 nM (inactive) | GI50 [10]: 53800 nM (inactive) | GI50 [11]: 24100 nM (inactive) | GI50 [12]: 21600 nM (inactive) | GI50 [13]: 5790 nM (inactive) | GI50 [14]: 19100 nM (inactive) | GI50 [15]: 20900 nM (inactive) | GI50 [16]: 21300 nM (inactive) | GI50 [17]: 36100 nM (inactive) | GI50 [18]: 19000 nM (inactive) | GI50 [19]: 17600 nM (inactive) | GI50 [20]: 2740 nM (inactive) | GI50 [21]: 11800 nM (inactive) | GI50 [22]: 19600 nM (inactive) | GI50 [23]: 22400 nM (inactive) | GI50 [24]: 22700 nM (inactive) | GI50 [25]: 11400 nM (inactive) | GI50 [26]: > 10000 nM (inactive) | GI50 [27]: 6240 nM (inactive) | GI50 [28]: 8530 nM (inactive) | GI50 [29]: 14.7 nM (active) | GI50 [30]: 23000 nM (inactive) | GI50 [31]: 5380 nM (inactive) | GI50 [32]: 43000 nM (inactive) | GI50 [33]: 11100 nM (inactive) | GI50 [34]: 5470 nM (inactive) | GI50 [35]: 8550 nM (inactive) | GI50 [36]: 31800 nM (inactive) | GI50 [37]: 15100 nM (inactive) | GI50 [38]: 18000 nM (inactive) | GI50 [39]: 26100 nM (inactive) | GI50 [40]: 30100 nM (inactive) | GI50 [41]: 24400 nM (inactive) | GI50 [42]: 25800 nM (inactive) | GI50 [43]: 12800 nM (inactive) | GI50 [44]: 31900 nM (inactive) | GI50 [45]: 26000 nM (inactive) | GI50 [46]: 7000 nM (inactive)

Cc1cc(NS(=O)(=O)c2ccc(Nc3c4ccccc4nc4c(C(=O)NCCN(C)C)cccc34)cc2)no1
GI50 [47]: 5080 nM (inactive) | GI50 [1]: 26400 nM (inactive) | GI50 [2]: 5090 nM (inactive) | GI50 [3]: 17900 nM (inactive) | GI50 [48]: 10700 nM (inactive) | GI50 [4]: 2860 nM (inactive) | GI50 [49]: 2490 nM (inactive) | GI50 [5]: 4180 nM (inactive) | GI50 [6]: 35100 nM (inactive) | GI50 [50]: 152 nM (active) | GI50 [51]: 4460 nM (inactive) | GI50 [7]: 18500 nM | GI50 [8]: 9250 nM (inactive) | GI50 [9]: 6120 nM (inactive) | GI50 [11]: 1780 nM (inactive) | GI50 [12]: 2550 nM (inactive) | GI50 [13]: 5600 nM (inactive) | GI50 [16]: 524 nM (active) | GI50 [17]: 10900 nM (inactive) | GI50 [52]: 272 nM (active) | GI50 [53]: 4090 nM (inactive) | GI50 [54]: 2090 nM (inactive) | GI50 [20]: 1080 nM (active) | GI50 [21]: 1350 nM (inactive) | GI50 [22]: 18300 nM (inactive) | GI50 [24]: 713 nM (active) | GI50 [55]: 2690 nM (inactive) | GI50 [25]: 685 nM (active) | GI50 [26]: 2120 nM (inactive) | GI50 [27]: 12700 nM (inactive) | GI50 [28]: 4790 nM (inactive) | GI50 [29]: 2300 nM (inactive) | GI50 [56]: 11800 nM (inactive) | GI50 [30]: 3870 nM (inactive) | GI50 [31]: 208 nM (active) | GI50 [33]: 3830 nM (inactive) | GI50 [34]: 3600 nM (inactive) | GI50 [35]: 12500 nM (inactive) | GI50 [37]: 3290 nM (inactive) | GI50 [38]: 6030 nM (inactive) | GI50 [39]: 6430 nM (inactive) | GI50 [40]: 2370 nM (inactive) | GI50 [41]: 3010 nM (inactive) | GI50 [42]: 3710 nM (inactive) | GI50 [43]: 813 nM (active) | GI50 [44]: 1720 nM (inactive) | GI50 [45]: 8380 nM (inactive) | GI50 [46]: 2520 nM (inactive)

CC(C)(O)/C=C/C(=O)[C@](C)(O)[C@H]1[C@H](O)C[C@@]2(C)[C@@H]3CC=C4[C@@H](C[C@H](O)C(=O)C4(C)C)[C@]3(C)C(=O)C[C@]12C [CUCURBITACIN D]
GI50 [47]: 76 nM (active) | GI50 [1]: 163 nM (active) | GI50 [2]: 375 nM (active) | GI50 [3]: 1040 nM (active) | GI50 [4]: 34 nM (active) | GI50 [5]: 650 nM (active) | GI50 [6]: 239 nM (active) | GI50 [50]: 262 nM (active) | GI50 [51]: 1070 nM (active) | GI50 [8]: 624 nM (active) | GI50 [9]: 181 nM (active) | GI50 [10]: 67.9 nM (active) | GI50 [57]: 22.8 nM (active) | GI50 [11]: 104 nM (active) | GI50 [12]: 43.8 nM (active) | GI50 [13]: 96.4 nM (active) | GI50 [14]: 201 nM (active) | GI50 [15]: 96.8 nM (active) | GI50 [16]: 277 nM (active) | GI50 [17]: 65.3 nM (active) | GI50 [52]: 118 nM (active) | GI50 [53]: 590 nM (active) | GI50 [18]: 116 nM (active) | GI50 [54]: 198 nM (active) | GI50 [58]: 74.8 nM (active) | GI50 [19]: 195 nM (active) | GI50 [20]: 68.7 nM (active) | GI50 [21]: 56.2 nM (active) | GI50 [23]: 50.6 nM (active) | GI50 [24]: 199 nM (active) | GI50 [55]: 287 nM (active) | GI50 [25]: 89.5 nM (active) | GI50 [26]: 82.6 nM (active) | GI50 [27]: 86.7 nM (active) | GI50 [28]: 112 nM (active) | GI50 [29]: 92.3 nM (active) | GI50 [56]: 86.3 nM (active) | GI50 [31]: 953 nM (active) | GI50 [32]: 281 nM (active) | GI50 [33]: 100 nM (active) | GI50 [34]: 73 nM (active) | GI50 [35]: 391 nM (active) | GI50 [36]: 272 nM (active) | GI50 [37]: 177 nM (active) | GI50 [38]: 112 nM (active) | GI50 [39]: 54.3 nM (active) | GI50 [40]: 376 nM (active) | GI50 [41]: 792 nM (active) | GI50 [43]: 128 nM (active) | GI50 [44]: 249 nM (active) | GI50 [45]: 344 nM (active) | GI50 [46]: 91.4 nM (active)
